This passage reports IC50 results from patent US7459453B2, “Pyridazin-3(2H)-one derivatives as PDE4 inhibitors” (Laboratorios Almirall, S.A., priority 2002, dated 2008).

The test has as its system PDE4. Description: PDE4 Assay Procedure ([3H]-cAMP SPA). The class given is biochemical. To be noted: 15 nM [3H]-cAMP, SPA beads, 1 hour at room temperature; compounds tested from 10 μM to 10 pM. The protocol: Compounds to be tested were resuspended in DMSO at a stock concentration of 1 mM. The compounds were tested at different concentrations varying from 10 μM to 10 pM to calculate an IC50. These dilutions were done in 96-well plates. In some cases, plates containing diluted compounds were frozen before being assayed. In these cases, the plates were thawed at room temperature and stirred for 15 minutes.
Ten microliters of the diluted compounds were poured into a “low binding” assay plate. Eighty microliters of reaction mixture containing 50 mM Tris pH 7.5, 8.3 mM MgCl2, 1.7 mM EGTA, and 15 nM [3H]-cAMP were added to each well. The reaction was initiated by adding ten microliters of a solution containing PDE4. The plate was then incubated under stirring for 1 hour at room temperature. After incubation the reaction was stopped with 50 microliters of SPA beads, and the reaction was allowed to incubate for another 20 minutes at room temperatures before measuring radioactivity using standard instrumentation.
The reaction mixture was prepared by adding 90 ml of H2O to 10 ml of 10× assay buffer (500 mM Tris pH 7.5, 83 mM MgCl2, 17 mM EGTA), and 40 microliters 1 μCi/μL [3H]-cAMP. SPA beads solution was prepared by adding 500 mg to […] H2O for a final concentration of 20 mg/ml beads and 18 mM zinc sulphate.

Broadly, the IC50 is the concentration that inhibits the measured activity by half. A low value points to greater potency.

With `CCn1nc(-c2cccc(Cl)c2)c(C(C)=O)c(Nc2cccc(F)c2)c1=O` [Example 88, 5-Acetyl-6-(3-chlorophenyl)-2-ethyl-4-[(3-fluorophenyl)amino]pyridazin-3(2H)-one], half-maximal inhibition (IC50) required 6.1 nM. As for `CCn1nc(-c2ccccc2)c(C(C)=O)c(Nc2cccc(Cl)c2)c1=O` [Example 52, 5-Acetyl-4-[(3-chlorophenyl)amino]-2-ethyl-6-phenylpyridazin-3(2H)-one], the figure is 12 nM; as for `CCn1nc(-c2ccc([S+](C)[O-])cc2)c(C(C)=O)c(Nc2ccccc2C)c1=O` (centres unmarked) [Example 31, 5-Acetyl-2-ethyl-4-[(2-methylphenyl)amino]-6-[4-(methylsulphinyl)phenyl]pyridazin-3(2H)-one], 20 nM. As for `CCn1nc(-c2cccc([N+](=O)[O-])c2)c(C(C)=O)c(Nc2cccc3ccccc23)c1=O` [Example 97, 5-Acetyl-2-ethyl-4-(naphthalen-1-ylamino)-6-(3-nitrophenyl)pyridazin-3(2H)-one], the figure is 0.5 nM; as for `CCn1nc(-c2ccccc2)c(C(C)=O)c(Nc2cccc(C(N)=O)c2)c1=O` [Example 232, 3-[(5-Acetyl-2-ethyl-3-oxo-6-phenyl-2,3-dihydropyridazin-4-yl)amino]benzamide], 13 nM; as for `CCn1nc(-c2cccc(F)c2)c(C(C)=O)c(Nc2cccc(F)c2)c1=O` [Example 91, 5-Acetyl-2-ethyl-4-[(3-fluorophenyl)amino]-6-(3-fluorophenyl)pyridazin-3(2H)-one], 5.9 nM. For `CCn1nc(-c2cccc(F)c2)c(C(C)=O)c(Nc2cccc(Cl)c2)c1=O` [Example 92, 5-Acetyl-4-[(3-chlorophenyl)amino]-2-ethyl-6-(3-fluorophenyl)pyridazin-3(2H)-one] the value was 8.7 nM; for `CCn1nc(-c2ccccc2)c(C(C)=O)c(Nc2ccc(F)c(Cl)c2)c1=O` [Example 190, 5-Acetyl-4-[(3-chloro-4-fluorophenyl)amino]-2-ethyl-6-phenylpyridazin-3(2H)-one], 9.3 nM; for `CC(=O)c1c(-c2ccccc2)nn(CC2CC2)c(=O)c1Nc1cc(F)cc(F)c1` [Example 109, 5-Acetyl-2-cyclopropylmethyl-4-(3,5-difluoro-phenylamino)-6-phenyl-2H-pyridazin-3-one], 0.26 nM. Take `CCn1nc(-c2ccccc2)c(C(C)=O)c(Nc2cccc3ccccc23)c1=O` [Example 8, 5-Acetyl-2-ethyl-4-(1-naphthylamino)-6-phenylpyridazin-3(2H)-one]: the IC50 is 2 nM.

The compound `CC(=O)c1c(-c2ccccc2)nn(C)c(=O)c1Nc1cc(F)cc(F)c1` [Example 39, 5-Acetyl-4-[(3,5-difluorophenyl)amino]-2-methyl-6-phenylpyridazin-3(2H)-one] displayed an IC50 of 16 nM. For `CC(=O)c1c(-c2ccccc2)nn(CC2CC2)c(=O)c1Nc1cccc(F)c1` [Example 45, 5-Acetyl-2-(cyclopropylmethyl)-4-[(3-fluorophenyl)amino]-6-phenylpyridazin-3(2H)-one] the value was 7.8 nM; for `CCn1nc(-c2ccccc2)c(C(C)=O)c(Nc2cccc(C#N)c2)c1=O` [Example 72, 3-[(5-Acetyl-2-ethyl-3-oxo-6-phenyl-2,3-dihydropyridazin-4-yl)amino]benzonitrile], 6 nM; for `CCn1nc(-c2ccc(F)cc2)c(C(C)=O)c(Nc2ccc(CO)cc2)c1=O` [Example 181, 5-Acetyl-2-ethyl-6-(4-fluorophenyl)-4-{[4-(hydroxymethyl)phenyl]amino}pyridazin-3(2H)-one], 25 nM.

In turn, `CCn1nc(-c2ccccc2)c(C(C)=O)c(Nc2ccc(C(=O)O)cc2)c1=O` [Example 50, 4-[(5-Acetyl-2-ethyl-3-oxo-6-phenyl-2,3-dihydropyridazin-4-yl)amino]benzoic acid] gave an IC50 of 14 nM.

Turning to `CCn1nc(-c2ccccc2)c(C(=O)OCc2ccccc2)c(Nc2cccc(Cl)c2)c1=O` [Example 274, Benzyl 5-[(3-chlorophenyl)amino]-1-ethyl-6-oxo-3-phenyl-1,6-dihydropyridazine-4-carboxylate], the IC50 amounted to 5.5 nM. For `CCn1nc(-c2ccc(SC)cc2)c(C(C)=O)c(Nc2ccc(C(=O)O)cc2)c1=O` [Example 23, 4-({5-Acetyl-2-ethyl-6-[4-(methylthio)phenyl]-3-oxo-2,3-dihydropyridazin-4-yl}amino)benzoic acid] the value was 9.5 nM; for `CCn1nc(-c2ccccc2)c(C(=O)CCc2ccccc2)c(Nc2cccc(Cl)c2)c1=O` [Example 120, 4-[(3-Chlorophenyl)amino]-2-ethyl-6-phenyl-5-(3-phenylpropanoyl)pyridazin-3(2H)-one], 7.1 nM. As for `CCn1nc(-c2ccccc2)c(C(C)=O)c(Nc2cccc(F)c2)c1=O` [Example 1, 5-Acetyl-2-ethyl-4-[(3-fluorophenyl)amino]-6-phenylpyridazin-3(2H)-one], the figure is 7.7 nM; as for `CC(=O)c1c(-c2ccccc2)nn(CC2CC2)c(=O)c1Nc1cccc(Cl)c1` [Example 46, 5-Acetyl-4-[(3-chlorophenyl)amino]-2-(cyclopropylmethyl)-6-phenylpyridazin-3(2H)-one], 8.9 nM. With `CCn1nc(-c2ccccc2)c(C(C)=O)c(Nc2c(F)cc(F)cc2F)c1=O` [Example 263, 5-Acetyl-2-ethyl-6-phenyl-4-[(2,4,6-trifluorophenyl)amino]pyridazin-3(2H)-one], it took 15 nM to reach half-maximal inhibition (IC50).

`CCn1nc(-c2ccccc2)c(C(C)=O)c(Nc2ccc(C#N)cc2)c1=O` [Example 231, 4-[(5-Acetyl-2-ethyl-3-oxo-6-phenyl-2,3-dihydropyridazin-4-yl)amino]benzonitrile] came in with a concentration for half-maximal inhibition (IC50) of 20 nM. `CCn1nc(-c2ccccc2)c(C(C)=O)c(Nc2ccccc2Cl)c1=O` [Example 13, 5-Acetyl-4-[(2-chlorophenyl)amino]-2-ethyl-6-phenylpyridazin-3(2H)-one] had an IC50 of 9.3 nM. As for `CCn1nc(-c2cccc(F)c2)c(C(C)=O)c(Nc2ccc(CO)cc2)c1=O` [Example 176, 5-Acetyl-2-ethyl-6-(3-fluorophenyl)-4-{[4-(hydroxymethyl)phenyl]amino}pyridazin-3(2H)-one], the figure is 19 nM. For `CCn1nc(-c2cccc(Cl)c2)c(C(C)=O)c(Nc2ccc(C(=O)O)cc2)c1=O` [Example 86, 4-[5-Acetyl-6-(3-chlorophenyl)-2-ethyl-3-oxo-2,3-dihydropyridazin-4-ylamino]benzoic acid] the value was 14 nM. As for `CCn1nc(-c2ccccc2)c(C(C)=O)c(Nc2cc(F)c(F)c(F)c2)c1=O` [Example 264, 5-Acetyl-2-ethyl-6-phenyl-4-[(3,4,5-trifluorophenyl)amino]pyridazin-3(2H)-one], the figure is 11 nM.
